Measurements from patent US20170304388A1, “NEW INDICATION OF CARDIOVASCULAR DRUGS FOR PREPARATION OF CANCER INHIBITION PHARMACEUTICAL COMPOSITION” (LAUNX BIOMEDICAL CO., LTD., priority 2014, published 2017).
Where a name gives a salt, the structure may show the parent alone.

These compounds were tested on cancer cell lines (assay: Growth inhibitory effects on the panel of cancer cell lines). Settings: drug 10 μM, 72 hours, WST-1.
Format: cell-based

| SMILES | inhibition effect on different cancer cell lines (in words) |
| --- | --- |
| OC[C@@H](O)[C@@H](O)[C@H](O)[C@H](O)CO [D-Mannitol (Osmitrol), D-Mannitol] | significant inhibition effect |
| O=C1[C@H](CC[C@H](O)c2ccc(F)cc2)[C@@H](c2ccc(O)cc2)N1c1ccc(F)cc1 [Ezetimibe (Zetia), Ezetimibe] | significant inhibition effect |
| CCOC(=O)C1=C(C)NC(C)=C(C(=O)OCC)C1c1ccccc1/C=C/C(=O)OC(C)(C)C [Lacidipine (Lacipil, Motens), Lacidipine] | significant inhibition effect |
| O=S(=O)(O)c1cc(O)ccc1O [Ethamsylate] | significant inhibition effect |
| COc1cc2nc(N3CCN(C(=O)C4COc5ccccc5O4)CC3)nc(N)c2cc1OC (centres unmarked) [Doxazosin mesylate] | significant inhibition effect |
| COc1ccccc1OCC(O)CN1CCN(CC(=O)Nc2c(C)cccc2C)CC1 (centres unmarked) [Ranolazine dihydrochloride] | significant inhibition effect |
| NS(=O)(=O)c1cc(Cl)c(Cl)c(S(N)(=O)=O)c1 [Dichlorphenamide (Diclofenamide), Dichlorphenamide] | significant inhibition effect |
| O=C(O[C@H]1CN2CCC1CC2)N1CCc2ccccc2[C@@H]1c1ccccc1 [Solifenacin succinate] | significant inhibition effect |
| Cc1onc(-c2ccccc2Cl)c1C(=O)N[C@@H]1C(=O)N2[C@@H]1SC(C)(C)[C@@H]2C(=O)O [Cloxacillin sodium (Cloxacap), Cloxacillin sodium] | significant inhibition effect |
| CCOC(=O)[C@H](CCc1ccccc1)N[C@@H](C)C(=O)N1CCC[C@H]1C(=O)O [Enalapril maleate (Vasotec), Enalapril maleate] | significant inhibition effect |
| NS(=O)(=O)c1cc2c(cc1Cl)NCNS2(=O)=O [Hydrochlorothiazide] | significant inhibition effect |
| CN(CCOc1ccc(NS(C)(=O)=O)cc1)CCc1ccc(NS(C)(=O)=O)cc1 [Dofetilide (Tikosyn), Dofetilide] | significant inhibition effect |
| CN(Cc1cc(Br)cc(Br)c1N)C1CCCCC1 [Bromhexine HCl] | significant inhibition effect |
| CS(=O)(=O)c1ccc([C@@H](O)[C@@H](CO)NC(=O)C(Cl)Cl)cc1 [Thiamphenicol (Thiophenicol), Thiamphenicol] | significant inhibition effect |
| CCOCC(O)COc1ccc(NC(=O)CC[S+](C)C)cc1 (centres unmarked) [Suplatast tosylate] | significant inhibition effect |
| CCCCCCCCOc1ccccc1C(=O)Nc1ccc(C(=O)OCC[N+](C)(CC)CC)cc1 [Otilonium Bromide] | significant inhibition effect |
| Nc1ccc(/N=N/c2ccccc2)c(N)n1 [Phenazopyridine HCl] | significant inhibition effect |
| COc1ccc(OC)c(C(O)C(C)N)c1 (centres unmarked) [Methoxamine HCl] | significant inhibition effect |
| NS(=O)(=O)c1cc2c(cc1Cl)N=C(CSCc1ccccc1)NS2(=O)=O [Benzthiazide] | significant inhibition effect |
| CNCC(=O)c1ccc(O)c(O)c1 [Adrenalone HCl] | significant inhibition effect |
| CN[C@@H]1[C@H](O)[C@H](NC)[C@H]2O[C@@]3(O)C(=O)C[C@@H](C)O[C@H]3O[C@@H]2[C@H]1O [Spectinomycin hydrochloride] | significant inhibition effect |
| C=CCOc1ccccc1OCC(O)CNC(C)C (centres unmarked) [Oxprenolol HCl] | significant inhibition effect |
| O=C(O[C@H]1C[C@H]2CC[C@@H](C1)[N+]21CCCC1)C(O)(c1ccccc1)c1ccccc1 [Trospium chloride (Sanctura), Trospium chloride] | significant inhibition effect |
| C[C@H](N[C@@H](CCc1ccccc1)C(=O)O)C(=O)N1CCC[C@H]1C(=O)O.O.O [Enalaprilat dehydrate] | significant inhibition effect |
| CC[C@H](C)C(=O)O[C@H]1CCC=C2C=C[C@H](C)[C@H](CC[C@@H]3C[C@@H](O)CC(=O)O3)[C@H]21 [Mevastatin] | significant inhibition effect |
| CC(C)NCC(O)c1ccccc1Cl (centres unmarked) [Clorprenaline HCL] | significant inhibition effect |
| CS(=O)(=O)OCCCCOS(C)(=O)=O [Busulfan (Myleran, Busulfex), Busulfan] | significant inhibition effect |

| SMILES | inhibition effect on different cancer cell lines (in words) |
| --- | --- |
| Nc1ncnc2c1ncn2[C@@H]1O[C@H](CO)[C@@H](O)[C@H]1O [Adenosine (Adenocard), Adenosine] | significant inhibition effect |
| CC(Oc1c(Cl)cccc1Cl)C1=NCCN1 (centres unmarked) [Lofexidine HCl] | significant inhibition effect |
| Cc1cc2c(cc1S(N)(=O)=O)S(=O)(=O)CCC2 [Meticrane] | significant inhibition effect |
| CC(C)C[C@H](NC(=O)[C@H](CCc1ccccc1)NC(=O)CN1CCOCC1)C(=O)N[C@@H](Cc1ccccc1)C(=O)N[C@@H](CC(C)C)C(=O)[C@@]1(C)CO1 [Carfilzomib (PR-171), Carfilzomib] | significant inhibition effect |
| O=c1c(-c2ccc(O)cc2)coc2cc(O)ccc12 [Daidzein] | significant inhibition effect |
| CC(C)NC[C@@H](O)COc1ccc(CC(N)=O)cc1 [(R)-(+)-Atenolol] | significant inhibition effect |
| CCOc1nc2cccc(C(=O)OCc3oc(=O)oc3C)c2n1Cc1ccc(-c2ccccc2-c2noc(=O)[nH]2)cc1 [Azilsartan Medoxomil (TAK-491), Azilsartan Medoxomil] | significant inhibition effect |
| Cc1cccc(C)c1OCC(C)N (centres unmarked) [Mexiletine HCl] | significant inhibition effect |
| CC(C)NCC(O)COc1ccc(CCOCC2CC2)cc1 (centres unmarked) [Betaxolol hydrochloride (Betoptic), Betaxolol hydrochloride] | significant inhibition effect |
| O=C1CCc2cc(OCCCCc3nnnn3C3CCCCC3)ccc2N1 [Cilostazol] | significant inhibition effect |
| Cc1cn([C@H]2C[C@H](N=[N+]=[N-])[C@@H](CO)O2)c(=O)[nH]c1=O [Zidovudine (Retrovir), Zidovudine] | significant inhibition effect |
| NS(=O)(=O)c1cc2c(cc1C(F)(F)F)NC(Cc1ccccc1)NS2(=O)=O (centres unmarked) [Bendroflumethiazide] | significant inhibition effect |
| NCCc1c[nH]cn1.O=P(O)(O)O [Histamine Phosphate] | significant inhibition effect |
| COc1ccc(CN2CCN(C(c3ccc(F)cc3)c3ccc(F)cc3)CC2)c(OC)c1OC [Lomerizine HCl] | significant inhibition effect |
| Cc1ccc(C)c(OCCCC(C)(C)C(=O)O)c1 [Gemfibrozil (Lopid), Gemfibrozil] | significant inhibition effect |
| COCCc1ccc(OCC(O)CNC(C)C)cc1 (centres unmarked) [toprolol tartrate] | significant inhibition effect |
| N[C@@H]1CCCCN(c2c(F)cc3c(=O)c(C(=O)O)cn(C4CC4)c3c2Cl)C1 [Besifloxacin HCl (Besivance), Besifloxacin HCl] | significant inhibition effect |
| CN(C)C(=O)Oc1ccc[n+](C)c1 [Pyridostigmine Bromide (Mestinon), Pyridostigmine Bromide] | significant inhibition effect |
| C[C@]12CCC(=O)C=C1C=C[C@@H]1[C@@H]2CC[C@@]2(C)[C@H]1CC[C@@]2(O)CCC(=O)O [Potassium Canrenoate] | significant inhibition effect |
| Cc1c(O)c(=O)ccn1C [Deferiprone] | significant inhibition effect |
| C[C@@H](CN1CC(=O)NC(=O)C1)N1CC(=O)NC(=O)C1 [Dexrazoxane Hydrochloride] | significant inhibition effect |
| O=C(NCCO[N+](=O)[O-])c1cccnc1 [Nicorandil (Ikorel), Nicorandil] | significant inhibition effect |
| CCCCC(=O)N(Cc1ccc(-c2ccccc2-c2nnn[nH]2)cc1)[C@H](C(=O)O)C(C)C [Valsartan (Diovan), Valsartan] | significant inhibition effect |
| COC(=O)CCc1ccc(OCC(O)CNC(C)C)cc1 (centres unmarked) [Esmolol HCl] | significant inhibition effect |
| COc1ccc(-n2nc(C(N)=O)c3c2C(=O)N(c2ccc(N4CCCCC4=O)cc2)CC3)cc1 [Apixaban] | significant inhibition effect |
| Oc1ccc(OC2CCCCO2)cc1 (centres unmarked) [Deoxyarbutin] | significant inhibition effect |
